# Measurements taken from PMC4160570, “Effects of proarrhythmic drugs on relaxation time and beating pattern in rat engineered heart tissue” (Basic Research in Cardiology, 2014).
# Where two headings read alike, the source gives them in different places.
# Legend:
# Ito [1] = tested on: Ito; parameters: method as in PMID 17446473; conditions: adult rat ventricular myocytes; cited from earlier work
# [2] = tested on: rat engineered heart tissue (EHT); assay: Action potentials recorded with intracellular microelectrodes in intact, field-stimulated EHTs; type: cell-based
# Protocol: Action potentials (APs) were recorded with standard intracellular microelectrodes in intact EHTs. […]. Preparations were field-stimulated for at least 1 h (2 Hz) before data acquisition. APs were analyzed off-line using the LabChart® software (ADInstruments, Spechbach, Germany).
# [3] = tested on: rat engineered heart tissue (EHT); assay: Ca^2+ transients (Fura-2) and contraction of EHTs under electrical stimulation and perfusion; type: cell-based
# Protocol: Intracellular Ca^2+-transients were analyzed in parallel with force under electrical stimulation and continuous perfusion using a novel setup as described previously. The setup consisted of an inverted microscope, a temperature- and O2/CO2-controlled chamber for the 24-well EHT plate, a flow rate-controlled perfusion system, platinum–iridium wire electrodes for field stimulation, a fluorescence light source (IonOptix Hyperswitch), a photomultiplier, video cameras and software (both IonOptix) for the evaluation of contractile activity (edge detection mode). Experiments were done at 4 ml flow/min (per well) and 2–4 Hz stimulation in modified Tyrode’s solution.
# For Fura loading, EHTs were incubated in Tyrode’s solution containing 10 µM Fura2-AM (Invitrogen F1221) and Cremophor EL ([…]; Sigma C5135) for 2 h at 37 °C. The ratio of light emission (510 nm) at excitation with 340 and 380 nm light (F340/380 ratio) was used as an index of cytosolic Ca^2+-concentration.
# To differentiate between effects on beating rate and relaxation and to analyse intracellular Ca^2+-transients in addition to force, two drugs were additionally analysed under pacing at defined beating rate using a novel modified IonOptix (IonOptix Corporation, Milton, MA, USA) setup. This custom-made setup allowed continuous electrical stimulation and perfusion of EHTs during the measurement. The setup consisted of an inverted microscope, a temperature- and O2/CO2-controlled chamber for the 24-well EHT plate mounted on the microscope stage, a flow rate-controlled perfusion system, platinum wire electrodes for field stimulation and a video camera and software (both IonOptix) for the evaluation of contractile activity (edge detection mode). Experiments were done under a flow rate of approximately 4 ml/min (per well) and stimulation at 2-4 Hz and 7 V. Measurements were done in a modified Tyrode’s solution (mM: NaCl 120, KCl 5.4, MgCl2 1.0, CaCl2 1.8, NaH2PO4 0.4, NaHCO3 22.6, glucose 5.0, Na2EDTA 0.05, ascorbic acid 0.3). EHTs were equilibrated for 20 min in Tyrode’s solution (baseline) and then exposed to the respective drug for up to 20 min. Reversibility of drug effects was determined after 20 min perfusion in drug-free Tyrode’s solution.
# For measurement of intracellular Ca^2+-transients, EHTs were incubated in Tyrode’s solution containing 10 µM Fura2-AM (Invitrogen F1221) and the non-ionic detergent Cremophor EL (0.0075%; Sigma C5135) for 2 h at 37 °C. After washing the EHTs for 10 min in Tyrode’s solution, measurements under perfusion and stimulation of Ca^2+-transients were performed in the same way as for force of contraction, but signals were evaluated by a 10x objective (instead of 1.25x for force) and a photomultiplier.The ratio of the emission intensity of light (510 nm) from EHTs alternatively excited at 340 and 380 nm (F340/380 ratio) was used as an index of cytosolic Ca^2+-concentration. Data were evaluated either with the IonOptix software or a customized software or manually when peaks were severely deformed.
# [4] = tested on: rat engineered heart tissue (EHT); assay: Video-optical analysis of contractile parameters of spontaneously beating rat EHTs (50 nM epinephrine); conditions: for effect on T2, drug alone: 1–1,000 nM, even at high concentrations (1,000 nM); for concentration response curve (T2) in the presence of 4AP: 4AP 3 mM
# IKr = conditions: read-out: IC50 (IKr blocker); cited from earlier work
# Ito [5] = tested on: Ito; parameters: method as in PMID 23896226; conditions: cited from earlier work
# ICa = tested on: ICa; parameters: method as in PMID 23896226; conditions: cited from earlier work
# IKs = tested on: IKs; parameters: method as in PMID 23896226; conditions: read-out: IC50 (IKs blocker); cited from earlier work
# [6] = tested on: rat engineered heart tissue (EHT); conditions: cited from earlier work
smiles,measurement,setting,value
"Nc1ccncc1 [4-aminopyridine (4AP), 4-aminopyridine]",IC50,Ito [1],980 µM
same,action potential duration (APD90),"[2]; 4AP 10 mM, 2 Hz, increased from a mean of 113 ms (vehicle control)",175 ms
same,effect on relaxation time T2 under electrical stimulation,"[3]; 2 Hz, 4AP 10 mM, epinephrine 50 nM",increased T2
same,effect on intracellular Ca^2+ transients (duration),"[3]; 4AP 10 mM, epinephrine 50 nM, in absence and presence of 4AP, 2 Hz",prolonged intracellular Ca^2+ transients
same,concentration starting to prolong T2 relative to IC50 in adult rat cardiac myocytes,[4]; 3 mM,3 fold IC50
same,effect on beating pattern,[4]; 4AP 10 mM,"induced beat-to-beat irregularities, variations of twitch amplitude and aftercontractions"
same,prolongation of relaxation (T2),"[4]; 4AP 30 mM, cumulative, 45 min per concentration",+502%
same,concentration at which T2 prolongation reaches significance,"[4]; cumulative concentrations, 45 min each",3 mM
Cc1cccc(CCN2CCC(C(=O)c3ccc(NS(C)(=O)=O)cc3)CC2)n1 [E-4031],IC50,IKr,[…]
same,"effect on T2, drug alone",[4],Neither E-4031 nor HMR-1556 affected T2
CN([C@H]1c2cc(OCCCC(F)(F)F)ccc2OC(C)(C)[C@@H]1O)S(C)(=O)=O [HMR-1556],IC50,Ito [5],33.9 µM
same,IC50,ICa,27.5 µM
same,IC50,IKs,0.0105 µM
same,"effect on T2, drug alone",[4],Neither E-4031 nor HMR-1556 affected T2
same,concentration response curve (T2) in the presence of 4AP,[4],shifted to the left
C=C[C@H]1C[N@@]2CC[C@H]1C[C@@H]2[C@@H](O)c1ccnc2ccc(OC)cc12 [Quinidine],action potential duration (APD90),"[2]; quinidine 100 µM, increased from 179 ms",232 ms
same,effect on relaxation time T2 in a previous EHT study,[6],caused concentration-dependent prolongations of relaxation time T2
same,reversibility of effects,[3]; after washout,fully reversible after washout
same,time course of effects under continuous electrical stimulation and perfusion,"[3]; quinidine 100 µM, erythromycin 1 mM","marked, time-dependent prolongation of T2 and a reduction in force, which was then followed by the development of a slower rhythm independent of pacing"
same,T2-threshold concentration,[4],100 µM
same,published IC50 values for hERG and Ito relative to threshold for T2 prolongation or irregularity,[4],at or below the threshold for T2 prolongation or irregularity
same,published IKs IC50 relative to threshold for group 1 or 2 effects,[4],at or below the threshold for group 1 or 2 effects
same,significant T2 prolongation (p<0.05 and at least 15 % vs baseline),"[4]; 1-, 10-, 100-fold FTPC, 50 nM epinephrine, n = 4–8",Significant T2 prolongations
